Measurements from US20130296358A1, “3-SPIROCYCLIC PIPERIDINE DERIVATIVES AS GHRELIN RECEPTOR AGONISTS” (priority 2012, published 2013).

How the values were obtained:
[1] = test system: rat fundus; assay: Rat fundus contractility assay (EFS-induced contraction of muscle strips); conditions: for Emax / Emax/%: relative to the response to ghrelin (100 nM), defined as 100%; for EC50: increase of EFS-induced contraction, mean of preparations from at least 3 animals
Protocol: Male Sprague Dawley rats (180-250 g) were culled by cervical dislocation and the fundus was removed. Each fundus was placed on a Krebs Henseleit (KH) buffer soaked dissection dish and cut along the long curvature to form a flattened sheet that was pinned in each corner. Four adjacent longitudinal strips (10×3 mm) were cut and the mucosa removed by sharp dissection. Each muscle strip was mounted in a 10 ml organ bath containing oxygenated KH at 37° C. Each strip was connected to an isometric force transducer, calibrated initially using a 5 g weight. The signal (g tension) was amplified and responses recorded by a Powerlab data capture system, connected to a computer running Labchart software (version 5.0). Tissues were placed under 1 g tension for an equilibration period of 30 min or until the baseline tension had stabilised. Carbachol (CCh, 100 nM) was then administered to establish the maximum contractile response of each preparation. Tissues were washed thoroughly and left for 30 min to re-equilibrate. Next, the muscle strips underwent electrical field stimulation (EFS). Maximal EFS pulse trains of 12V, 5 Hz, 0.1 msec pulse width, for 2 sec every 60 sec were applied until consistent electrically-stimulated phasic contractions were recorded. The voltage was then reduced in 1V increments until a consistent submaximal (EC50-75) EFS response was observed. Ghrelin (100 nM) was administered and left until a maximum response was obtained. Tissues were then washed thoroughly and left for 30 min. Once the EFS-induced contraction had re-stabilised, cumulative additions (10 nM-10 μM) of each test compound were administered. Individual responses were calculated by determining the peak of the EFS-induced contraction minus the baseline. […] The mean EC50 value for compounds was generated from data obtained on stomach preparations from at least 3 different animals.

[2] = molecular target: T1, human recombinant ghrelin receptor (GHS-R1a) (Homo sapiens, UniProt Q92847); assay: cAMP assay (HTRF), CHO-hGHS-R1a cells; assay type: cell-based; conditions: for Emax / hGHS-R1a cAMP assay Emax/%: relative to the ghrelin response (defined as 100%)
T1 construct: host or cells: CHO-K1
T1 sequence (Q92847 whole entry): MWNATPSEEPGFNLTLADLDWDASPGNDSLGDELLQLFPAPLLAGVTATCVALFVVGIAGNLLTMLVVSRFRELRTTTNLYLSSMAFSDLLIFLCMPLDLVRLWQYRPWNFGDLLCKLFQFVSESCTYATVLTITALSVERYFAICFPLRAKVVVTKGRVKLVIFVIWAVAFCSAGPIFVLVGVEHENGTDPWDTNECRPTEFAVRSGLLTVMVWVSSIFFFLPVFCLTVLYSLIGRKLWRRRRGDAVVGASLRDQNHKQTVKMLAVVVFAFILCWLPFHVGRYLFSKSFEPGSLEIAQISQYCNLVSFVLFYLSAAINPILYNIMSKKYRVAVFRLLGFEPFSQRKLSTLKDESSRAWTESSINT
Protocol: (§1) Chinese hamster ovary (CHO-K1) cells expressing human recombinant ghrelin receptor (GHS-R1a) were purchased from Euroscreen (ES-410-C) and propagated in UltraCHO medium containing glutamine and supplemented with 1% heat inactivated foetal calf serum (FCS), 100 U/ml penicillin, 100 mg/l streptomycin and 0.8 g/l geneticin. Cells were sub-cultured twice a week with a 1:10 dilution. For passaging, cells were washed with 1× DPBS without calcium and magnesium, trypsinised for 10 min with 0.05% Trypsin/EDTA and resuspended in cell culture medium.
The Homogeneous Time-Resolved Fluorescence (HTRF) cAMP dynamic 2 kit (Cisbio International, France) was used as follows. CHO-hGHS—R1a or CHO-rGHS—R1a cells were seeded in a volume of 25 μl culture media at 10,000 cells/well (400,000 cells/ml) in Greiner white 384-well high volume plates and incubated overnight (18-24 h) at 37° C./5% CO2. Then, media was removed and 6 μl assay buffer [HBSS, 10 mM Hepes, 0.2% (w/v) BSA, 1.7 mM IBMX, (pH7.4)] were added to the wells. To generate a dose response up to 30 μM, 10 mM compound stocks in 100% (v/v) DMSO were firstly diluted in 50% (v/v) DMSO followed by a further dilution into assay buffer. Then, 4 μl of 2.5× compound (dose response as 9 point log serial dilution in assay buffer from 30 μM as maximum concentration) were added to each well achieving a final DMSO assay concentration of 0.8% (v/v). 0.1 μM forskolin was added as positive control. After 30 min (rGHS—R1a cell line) or 60 min (hGHS—R1a cell line) incubation at 37° C./5% CO2, 5 μl of cAMP-d2 and 5 μl of anti-cAMP antibody-cryptate, (both made in lysis buffer), were added to the plate followed by 1 h incubation at RT. During this time, cAMP produced by the cells competed with cAMP-d2 for the anti-cAMP antibody-cryptate molecule. Then, the plate was read on the Pherastar instrument (BMG, Germany) at two different emission wavelengths ([…]). Increasing levels of endogenous cAMP produced by cells could be followed by a decrease of FRET fluorescent signal and viceversa. Values represented by a change in arbitrary fluorescence ratios (665/620) were converted into cAMP concentrations by using a standard curve, the reagents for which were supplied with the kit. EC50 values of agonists were calculated using the nonlinear logistic function of the Prism 5 software (GraphPad, USA). Emax were expressed as relative values of the ghrelin response, which was defined as 100%.

[3] = molecular target: T1, human recombinant ghrelin receptor (GHS-R1a); assay: Calcium assay, CHO-K1 cells expressing hGHS-R1a (Fluo-4); assay type: cell-based; conditions: for Emax: CHO-K1, relative to the Emax induced by MK-0677 (defined as 100%), read-out: hGHS-R1a Ca assay Emax/%
Protocol: as §1
Cells were diluted to achieve 1×10^6 cells/ml, seeded in 384-well black clear bottom CellBind plates at 25000 cells/well (25u1) and incubated overnight at 37° C./5% CO2 Cells were expected to be 85-90% confluent on the day of assay (checked under the microscope) to ensure a high quality assay. Media was manually removed and 40 μl of loading solution containing probenecid and Fluo-4 no wash dye (a calcium indicator, Invitrogen F36206) were added to each well. After 30 min at 37° C. followed by another 30 min at RT, cpds were added to the wells. To generate a dose response up to 30 μM, 10 mM compound stocks in 100% (v/v) DMSO were firstly diluted in 50% (v/v) DMSO. Then, serial dilutions aimed at a full logarithmic dose responses (8 point) were performed in assay buffer [1×HBSS, 20 mM Hepes, 0.1% (w/v) BSA] to give 2.5% (v/v) DMSO and 5× final compound concentrations. The final assay DMSO concentration was 0.5% (v/v). After loading the cells with Fluo-4 containing solution, plates were read on a CeIlLux instrument (Perkin Elmer). A protocol set up to add 10 μl of 5× compound and to read the plate for 60sec after adding the compound at 17th sec was used. Fluorescence excitation took place at 494 nm and emission at 516 nm. EC50 values of agonists were calculated by fitting the percent stimulation over background [(Max-Min)/Min] using the nonlinear logistic function of the Prism 5 software (GraphPad, USA).

SMILES	Emax ([1]; Rattus norvegicus) [%]	Emax [2] [%]	Emax [3] [%]	EC50 ([1]; Rattus norvegicus) [nM]	further results
CC(C)N1CC(c2ccccc2)C2(CCCN(C(=O)[C@@H](COCc3ccccc3)NC(=O)C(C)(C)N)C2)C1=O (single isomer, unassigned) [Example 1.5]	80	195	96	–	EC50 [1]: 35 nM
CN1CC(c2ccccc2)C2(CCCN(C(=O)[C@@H](COCc3ccccc3)NC(=O)C(C)(C)N)C2)C1=O (single isomer, unassigned) [Example 1.20]	–	–	99	–	EC50 [1]: 393 nM; Emax/% [1]: 39%; hGHS-R1a cAMP assay Emax/% [2]: 169%
CC(C)N1CC(c2ccc(F)cc2)C2(CCCN(C(=O)[C@@H](Cc3cn(C)c4ccccc34)NC(=O)C(C)(C)N)C2)C1=O (single isomer, unassigned) [Example 1.15]	123	331	112	36	–
CN1C[C@@H](c2ccc(F)cc2)[C@@]2(CCCN(C(=O)[C@@H](COCc3ccccc3)NC(=O)C(C)(C)N)C2)C1=O [Example 1.2, 2-Amino-N-((2R)-3-(benzyloxy)-1-((4S,5R)-4-(4-fluorophenyl)-2-methyl-1-oxo-2,7-diazaspiro[4.5]decan-7-yl)-1-oxopropan-2-yl)-2-methylpropanamide]	100	197	89	7.5	–
CN1C[C@@H](c2ccccc2)[C@@]2(CCCN(C(=O)[C@@H](COCc3ccccc3)NC(=O)C(C)(C)N)C2)C1=O (single isomer, unassigned) [Example 1.0(ii)]	66	141	100	13	–
CN1CC(c2ccccc2)C2(CCCN(C(=O)[C@@H](COCc3ccccc3)NC(=O)C(C)(C)N)C2)C1=O (single isomer, unassigned) [Example 1.21]	–	–	–	–	EC50 [1]: 84 nM; Emax/% [1]: 81%; hGHS-R1a cAMP assay Emax/% [2]: 122%; hGHS-R1a Ca assay Emax/% ([3]; relative to the Emax induced by MK-0677 (defined as 100%)): 105%
Cc1ccc(COC[C@@H](NC(=O)C(C)(C)N)C(=O)N2CCCC3(C2)C(=O)N(C)CC3c2ccc(F)cc2)cc1 (single isomer, unassigned) [Example 1.29]	100	243	102	48	–
C[C@H](OCc1ccccc1)[C@@H](NC(=O)C(C)(C)N)C(=O)N1CCCC2(C1)C(=O)N(C)CC2c1ccccc1 (single isomer, unassigned) [Example 1.34]	115	168	107	68	–
CN(C)C(=O)CN1CC(c2ccccc2)C2(CCCN(C(=O)[C@@H](COCc3ccccc3)NC(=O)C(C)(C)N)C2)C1=O (single isomer, unassigned) [Example 1.16]	124	210	101	13	–
CNC(C)(C)C(=O)N[C@H](COCc1ccccc1)C(=O)N1CCCC2(C1)C(=O)N(C)CC2c1ccccc1 (single isomer, unassigned) [Example 1.17]	113	124	107	137	–
CCC(N)(CC)C(=O)N[C@H](COCc1ccccc1)C(=O)N1CCC[C@@]2(C1)C(=O)N(C)C[C@H]2c1ccccc1 [Example 1.71, 2-amino-N-((R)-3-(benzyloxy)-1-((4S,5R)-2-methyl-1-oxo-4-phenyl-2,7-diazaspiro[4.5]decan-7-yl)-1-oxopropan-2-yl)-2-ethylbutanamide]	–	111	108	–	–
Cc1ccc(COC[C@@H](NC(=O)C(C)(C)N)C(=O)N2CCCC3(C2)C(=O)N(C)CC3c2ccc(F)cc2)cc1 (stereo partly drawn) [Example 1.72, 2-amino-N-((2R)-1-(4-(4-fluorophenyl)-2-methyl-1-oxo-2,7-diazaspiro[4.5]decan-7-yl)-3-((4-methylbenzyl)oxy)-1-oxopropan-2-yl)-2-methylpropanamide]	–	147	110	–	–
Cc1ccc(COC[C@@H](NC(=O)C(C)(C)N)C(=O)N2CCCC3(C2)C(=O)N(C)CC3c2ccccc2)cc1 (single isomer, unassigned) [Example 1.55]	–	191	94	–	–
CN1CC(c2ccccc2)C2(CCCN(C(=O)[C@@H](COCc3ccccc3)NC(=O)C(C)(C)N)CC2)C1=O (single isomer, unassigned) [Example 9.0(iv)]	–	127	96	–	–
CN1CC(c2ccccc2)C2(CCN(C(=O)[C@@H](COCc3ccccc3)NC(=O)C(C)(C)N)C2)C1=O (single isomer, unassigned) [Example 8.0]	–	129	101	–	EC50 ([2]; CHO-hGHS-R1a cells, 60 min incubation, maximum concentration 30 μM): 2.38 µM; EC50 ([3]; CHO-K1 cells expressing hGHS-R1a, read-out: hGHS-R1a Ca assay EC50/μM): 0.0046 µM
CN1CC(c2ccccc2)C2(CCCN(C(=O)[C@@H](COCc3ccc(F)cc3)NC(=O)C(C)(C)N)C2)C1=O (single isomer, unassigned) [Example 7.0, 2-Amino-N—[(R)-1-(4-fluoro-benzyloxymethyl)-2-(4S,5R)-2-methyl-1-oxo-4-phenyl-2,7-diaza-spiro[4.5]clec-7-yl)-2-oxo-ethyl]-2-methyl-propionamide or 2-Amino-N—[(R)-1-(4-fluoro-benzyloxymethyl)-2-(4R,5S)-2-methyl-1-oxo-4-phenyl-2,7-diaza-spiro[4.5]clec-7-yl)-2-oxo-ethyl]-2-methyl-propionamide]	–	153	83	–	–
CN1N=C(c2ccccc2)C2(CCCN(C(=O)[C@@H](COCc3ccccc3)NC(=O)C(C)(C)N)C2)C1=O (mixture of isomers) [Example 1.47, 2-Amino-N-[(R)-1-benzyloxymetnyl-2-(3-methyl-4-oxo-1-phenyl-2,3,7-triaza-spiro[4.5]dec-1-en-7-yl)-2-oxo-ethyl]-2-methyl-propionamide]	–	145	104	–	–
